Measured values as given in US9376444.
Read-outs that look alike come from different tables or passages of the source.

Conditions: rcm bond, Grubbs II, DCM, 40.0 °C

COC(=O)Nc1ccc2c(c1)NC(=O)[C@H](C)/C=C/C[C@H](NC(=O)OC(C)(C)C)c1nc-2cn1COCC[Si](C)(C)C
ring closure, yield of all isomers (from C=CC[C@H](NC(=O)OC(C)(C)C)c1nc(-c2ccc(NC(=O)OC)cc2NC(=O)[C@H](C)C=C)cn1COCC[Si](C)(C)C, 9.73 mM, 21.5 h): 74%

COC(=O)Nc1ccc2c(c1)NC(=O)[C@H](C)/C=C/C[C@H](NC(=O)OC(C)(C)C)c1cc-2ccn1
ring closure, yield of all isomers (from C=CC[C@H](NC(=O)OC(C)(C)C)c1cc(-c2ccc(NC(=O)OC)cc2NC(=O)[C@H](C)C=C)ccn1, 11.76 mM, 4.0 h): 71.2%

C[C@@H]1/C=C/C[C@H](NC(=O)OC(C)(C)C)c2cn(COCC[Si](C)(C)C)c(n2)-c2ccc([N+](=O)[O-])cc2NC1=O
ring closure, yield of all isomers (from C=CC[C@H](NC(=O)OC(C)(C)C)c1cn(COCC[Si](C)(C)C)c(-c2ccc([N+](=O)[O-])cc2NC(=O)[C@H](C)C=C)n1, 1.016 mM): 55.9%
